Format in all cases: functional, cell-based
In one assay the test system is PC-3. Kind of assay: Cytotoxicity against human PC3 cells after 48 hrs by MTT assay. The note with it: PC-3, 48 h.
The subject of a further assay is DU-145. Kind of assay: Cytotoxicity against human DU145 cells after 48 hrs by MTT assay. Conditions: DU-145, 48 h. On the technique in general: Tetrazolium assays rely on reduction of a dye to a coloured formazan, in cell work by metabolically active cells.
The next assay concerns LNCaP. The experiment in a line: Cytotoxicity against human LNCAP cells after 48 hrs by MTT assay.
Another assay concerns MCF7. The experiment in a line: Cytotoxicity against human MCF7 cells after 48 hrs by MTT assay. The note with it: MCF7, 48 h.
The test system of another assay is MDA-MB-231. Kind of assay: Cytotoxicity against human MDA-MB-231 cells after 48 hrs by MTT assay. The note with it: MDA-MB-231, 48 h.
The test system of a further assay is MIA PaCa-2. The experiment in a line: Cytotoxicity against human MIAPaCa2 cells after 48 hrs by MTT assay. The note with it: MIA PaCa-2, 48 h.

For orientation: IC50 means the concentration that gives 50% inhibition. High values mean weaker potency, low ones greater potency. For `COc1cc(-c2noc(C3CCNCC3)n2)cc(OC)c1OC`, the IC50 was 176 µM in the assay on PC-3; 112 µM in the assay on DU-145; 120 µM in the assay on LNCaP; 324 µM with MCF7; 123 µM with MDA-MB-231; 80.1 µM in the assay on MIA PaCa-2.
Regarding `CCOC(=O)N1CCC(c2nc(-c3ccc(OC)c(OC4CCCC4)c3)no2)CC1`, the IC50 in the assay on PC-3 was found to be 80 µM; with DU-145, 29.3 µM; in the assay with LNCaP, 58.7 µM; with MCF7, 27 µM; in the assay with MDA-MB-231, 36.8 µM; with MIA PaCa-2, 24 µM.
Take `COc1ccc(-c2nc(-c3ccc(OC)c(OC4CCCC4)c3)no2)cc1OC`: the IC50 is 171 µM in the assay on PC-3; 422 µM in the assay on DU-145; 816 µM in the assay on LNCaP; over 1000 µM with MCF7; 236 µM in the assay with MDA-MB-231; 404 µM in the assay with MIA PaCa-2.
For `COc1ccc(-c2nnc(C3CCNCC3)s2)cc1OC1CCCC1`, the 50% inhibitory concentration (IC50) worked out at 12.9 µM in the assay on PC-3; 19.6 µM with DU-145; 19.2 µM with LNCaP; 17.6 µM with MCF7; 9.2 µM in the assay on MDA-MB-231; 10.2 µM in the assay on MIA PaCa-2.
With `COc1ccc(-c2noc(C3CCCCC3)n2)cc1OC1CCCC1`, the IC50 was 80.3 µM in the assay on PC-3; 108 µM with DU-145; 92.6 µM in the assay with LNCaP; 57.3 µM in the assay on MCF7; 138 µM in the assay with MDA-MB-231; 64.5 µM in the assay with MIA PaCa-2.
With `COc1cc(-c2noc(C3CCNCC3)n2)ccc1OC1CCCC1`, the IC50 in the assay with PC-3 amounted to 11.7 µM; with DU-145 it was 30 µM; with LNCaP it was 42.2 µM; in the assay with MCF7 it was 29 µM; in the assay on MDA-MB-231 it was 28.5 µM; in the assay on MIA PaCa-2, 13 µM.
On to `COc1ccc(-c2noc(C3CCCC3)n2)cc1OC1CCCC1`, for which the IC50 with PC-3 turned out to be 194 µM; in the assay with DU-145, 106 µM; with LNCaP, 138 µM; in the assay with MCF7 it was 62.3 µM; with MDA-MB-231, 87.5 µM; in the assay with MIA PaCa-2, 99.2 µM.
With `COc1ccc(-c2noc(C3CCNCC3)n2)cc1OC`, the IC50 in the assay with PC-3 turned out to be 315 µM; in the assay on DU-145, 108 µM; in the assay with LNCaP it was 38.8 µM; in the assay with MCF7 it was 27 µM; with MDA-MB-231 it was 122 µM; with MIA PaCa-2, 147 µM.
On to `COc1ccc(-c2noc(C3CCN(C(=O)OC(C)(C)C)CC3)n2)cc1OC1CCCC1`, for which the IC50 was 108 µM in the assay with PC-3; 120 µM in the assay with DU-145; 122 µM with LNCaP; 60.3 µM with MCF7; 38.3 µM in the assay on MDA-MB-231; 23.3 µM with MIA PaCa-2.
As to `CCOc1cc(-c2noc(C3CCNCC3)n2)ccc1OC`, the IC50 in the assay on PC-3 was 166 µM; with DU-145, 167 µM; in the assay with LNCaP, 154 µM; in the assay on MCF7, 173 µM; with MDA-MB-231 it was 184 µM; in the assay with MIA PaCa-2, 112 µM.
For the compound `COc1ccc(-c2nc(-c3ccc(OC)c(OC4CCCC4)c3)no2)cc1`, the IC50 in the assay with PC-3 is 408 µM; in the assay on DU-145, 414 µM; with LNCaP it was 843 µM; with MCF7, over 1000 µM; in the assay with MDA-MB-231 it was 77.7 µM; with MIA PaCa-2, 420 µM.
On to `COc1cc(-c2noc(C3CCN(C(=O)OC(C)(C)C)CC3)n2)cc(OC)c1OC`, for which the IC50 in the assay with PC-3 is 56.9 µM; in the assay with DU-145, 48.4 µM; in the assay with LNCaP, 48.2 µM; in the assay on MCF7, 43.6 µM; in the assay with MDA-MB-231, 13.6 µM; in the assay with MIA PaCa-2, 106 µM.
On to `COc1cc(-c2noc(-c3cc(OC)c(OC)c(OC)c3)n2)cc(OC)c1OC`, for which the 50% inhibitory concentration (IC50) was 698 µM in the assay on PC-3; 576 µM in the assay with DU-145; 407 µM with LNCaP; over 1000 µM with MCF7; 261 µM in the assay on MDA-MB-231; over 1000 µM with MIA PaCa-2.
On to `CCOc1cc(-c2noc(C3CCN(C(=O)OC(C)(C)C)CC3)n2)ccc1OC`, for which the IC50 in the assay with PC-3 was determined as 41 µM; in the assay on DU-145, 156 µM; in the assay on LNCaP it was 96.1 µM; with MCF7, 93.8 µM; in the assay with MDA-MB-231, 116 µM; in the assay with MIA PaCa-2, 91.1 µM.
Turning to `COc1ccc(-c2nc(-c3cc(OC)c(OC)c(OC)c3)no2)cc1OC`, the IC50 in the assay on PC-3 was over 1000 µM; in the assay with DU-145, over 1000 µM; with LNCaP it was over 1000 µM; with MCF7, over 1000 µM; with MDA-MB-231, 475 µM; with MIA PaCa-2, over 1000 µM.
Turning to `COc1ccc(-c2noc(C3CCN(C(=O)OC(C)(C)C)CC3)n2)cc1OC`, the IC50 in the assay on PC-3 amounted to 108 µM; in the assay on DU-145 it was 158 µM; in the assay with LNCaP it was 85.6 µM; with MCF7 it was 52.2 µM; in the assay with MDA-MB-231 it was 129 µM; in the assay with MIA PaCa-2 it was 32.5 µM.
Take `CCCCOc1cc(-c2noc(C3CCNCC3)n2)ccc1OC`: the IC50 in the assay with PC-3 is 35.8 µM; in the assay with DU-145, 17 µM; with LNCaP, 32.5 µM; in the assay with MCF7, 15.7 µM; with MDA-MB-231, 23.8 µM; with MIA PaCa-2 it was 18.5 µM.
As for `COc1ccc(-c2noc(C3CCN(S(C)(=O)=O)CC3)n2)cc1OC1CCCC1`, the IC50 in the assay with PC-3 is 159 µM; in the assay with DU-145, 134 µM; in the assay on LNCaP, 149 µM; in the assay with MCF7 it was 113 µM; with MDA-MB-231, 109 µM; with MIA PaCa-2, 144 µM.
As for `COc1ccc(-c2noc(C(Cl)(Cl)Cl)n2)cc1OC1CCCC1`, the IC50 in the assay with PC-3 is 15 µM; with DU-145 it was 9.3 µM; in the assay with LNCaP, 17.8 µM; in the assay on MCF7 it was 47.4 µM; in the assay on MDA-MB-231, 16.1 µM; with MIA PaCa-2, 14.5 µM.
Regarding `COc1ccc(-c2nnc(C3CCNCC3)o2)cc1OC1CCCC1`, the IC50 in the assay on PC-3 was over 1000 µM; with DU-145, 146 µM; in the assay on LNCaP it was 308 µM; in the assay with MCF7, 129 µM; in the assay on MDA-MB-231 it was 38.3 µM; in the assay on MIA PaCa-2 it was 331 µM.
For the compound `COc1ccc(-c2nc(-c3cc(OC)c(OC)c(OC)c3)no2)cc1`, the IC50 was 214 µM in the assay with PC-3; 100 µM in the assay on DU-145; 327 µM in the assay on LNCaP; over 1000 µM with MCF7; 768 µM in the assay on MDA-MB-231; 43.5 µM in the assay with MIA PaCa-2.
For `CCCCOc1cc(-c2noc(C3CCN(C(=O)OC(C)(C)C)CC3)n2)ccc1OC`, the IC50 is 130 µM in the assay on PC-3; 102 µM in the assay with DU-145; 91 µM with LNCaP; 91 µM in the assay on MCF7; 88 µM in the assay with MDA-MB-231; 105 µM in the assay on MIA PaCa-2.
As for `COc1cc(-c2noc(C3CCN(C(=O)OC(C)(C)C)CC3)n2)ccc1OC1CCCC1`, the IC50 in the assay on PC-3 came out at 315 µM; in the assay on DU-145, 98.6 µM; in the assay on LNCaP, 106 µM; in the assay on MCF7 it was 38 µM; with MDA-MB-231 it was 41 µM; in the assay on MIA PaCa-2, 21.5 µM.

Source of the values: ChEMBL document CHEMBL1795335, “Synthesis of novel 1,2,4-oxadiazoles and analogues as potential anticancer agents” (Eur J Med Chem, 2011).
